The subject of assay [1] is reconstructed melanized human epidermis. Put plainly: Pigmentation test: biochemical quantification of the melanic content. In kind it is cell-based. As to conditions: α-MSH 100 nM. On the procedure: 1. —Materials and Methods
The BB product is diluted in ethanol then incorporated into a cosmetic formulation.
a—BB product incorporated in formulation at 0.05%
b—BB product incorporated in formulation at 0.15%
c—BB product incorporated in formulation at 0.30%
They are conserved at 4° C. until use thereof.
2. —Biochemical Assessment
At the end of the incubation, the melanin contained in cell lysates was quantified by a spectrophotometrical method. A range of melanin was carried out in parallel with the assay.
The results are expressed in […] of melanin per ml of lysate of the cell carpets (average +/−standard deviation SD).
The statistical significance of the observed differences between the conditions <<treated >> and <<controls >> was assessed by variance analysis to a factor (One Way ANOVA) followed by a test of Bonferroni t-test (*:p<0.05;**:p<0.01).

Assay [2] has as its system reconstructed melanized human epidermal skins. Put plainly: Pigmentation test: melanic content by image analysis (Fontana Masson). As to conditions: WITHOUT UV; α-MSH 100 nM. It counts as cell-based. How it is done:
3. —Histological Assessment
The epidermis skins ware fixed in formaldehyde from the end of incubation, then embedded in paraffin blocs. Subsequently sections of 4 μm thickness were cut.
Said slides by condition were carried out with a magnification ×400. The visualisable melanin on these slides was quantified by image analysis using the Image J program.
The results are expressed in form of the surface occupied by the melanin (number of pixels the grey scale of which is between 0 and 100; 0=black/255=white) in each slide (average +/−standard deviation, SD).
The statistical significance of the noted differences between the treated conditions and controls was assessed by a Student's test (*: p<0.05, **: p<0.01; ***: p<0.001).

“And” between values parts separate entries of the source, which are not always exact repeats. Equal values may be shown once.

α-MSH: in assay [1] (+UVA), the “Melanin, % medium alone” value was determined as 141%; the “Melanin, Average” value is 96.1 µg/mL; the “Melanin, single values” was 95.6 µg/mL and 84.7 µg/mL and 107.9 µg/mL. In addition, in assay [1] (+UVB), the “Melanin, % medium alone” value was determined as 128%; the “Melanin, Average” value came to 106.5 µg/mL; the “Melanin, single values” is 99.5 µg/mL and 115.5 µg/mL and 104.6 µg/mL. Also, in assay [1] (WITHOUT UV), the “Melanin, % medium alone” value turned out to be 141%; the “Melanin, Average” value came to 80.7 µg/mL; the “Melanin, single values” is 70.3 µg/mL and 86.9 µg/mL and 85 µg/mL. Besides, in assay [2], the “Surface occupied by the melanin, % medium alone” value was determined as 208% and the “Surface occupied by the melanin, Average” value amounted to 40277.8 pixels.
